# Target: T1, human β3 adrenergic receptor (Homo sapiens, UniProt P13945)
# T1 construct: expressed in transfected cells; host or cells: CHO (Chinese hamster ovary) cells, stably transfected
# Experiment: Beta-3 agonist in vitro functional assay (cAMP production, LANCE, transfected CHO cells)
# Assay type: cell-based
# Conditions: Table 1, CHO cells with cloned β3 receptor, ligands titrated 10^-10 M to 10^-5 M, read-out: Human β3 agonist functional activity
# Procedure: Functional Assay: For compounds in examples 1-50, cAMP production in response to ligand is measured according to Barton, et al. (1991, Agonist-induced desensitization of D2 dopamine receptors in human Y-79 retinoblastoma cells. Mol. Pharmacol. […]:650-658) modified as follows. The cAMP production is measured using a homogenous time-resolved fluorescence resonance energy transfer immunoassay (LANCE™, Perkin Elmer) according to the manufacture's instructions. Chinese hamster ovary (CHO) cells, stably transfected with the cloned β-adrenergic receptor (β1, β2 or β3) are harvested after 3 days of subculturing. Harvesting of cells is done with Enzyme-free Dissociation Media (Specialty Media). Cells are then counted and resuspended in assay buffer (Hank's Balanced salt solution supplemented with 5 mM HEPES, […]) containing a phosphodiesterase inhibitor (IBMX, 0.6 mM). The reaction is initiated by mixing 6,000 cells in 6 μL with 6 μL Alexa Fluor labeled cAMP antibody (LANCE™ kit) which is then added to an assay well containing 12 μL of compound (diluted in assay buffer to 2× final concentration). The reaction proceeds for 30 minutes at RT and is terminated by the addition of 24 ul detection buffer (LANCE™ kit). The assay plate is then incubated for 1 h at RT and time-resolved fluorescence measured on a Perkin Elmer Envision reader or equivalent. The unknown cAMP level is determined by comparing fluorescence levels to a cAMP standard curve.
# The non-selective, full agonist β-adrenergic ligand isoproterenol is used at all three receptors to determine maximal stimulation. The human β3 adrenergic receptor (AR) selective ligand (S)-N-[4-[2-[[2-hydroxy-3-(4-hydroxyphenoxy)propyl]amino]ethyl]-phenyl]-4-iodobenzenesulfonamide is used as a control in all assays. […] The EC50 is defined as the concentration of compound that gives 50% activation of its own maximum. Data are analyzed using Microsoft Excel and Graphpad Prism or an internally developed data analysis software package.
# The EC50 is defined as the concentration of compound that gives 50% activation of its own maximum. Functional antagonist assays are performed similar to described above; however, unknown ligands are titrated at β-adrenergic receptor subtypes 1 and 2 at a final concentration in the assay of 10^-12 M to 10^-5 M in the presence of 10^-9 M full agonist β-adrenergic ligand isoproterenol. The EC50 is defined as the concentration of compound that gives 50% inhibition of the full agonist response. Data are analyzed using Microsoft Excel and Graphpad Prism or an internally developed data analysis software package.
# T1 sequence (P13945 whole entry): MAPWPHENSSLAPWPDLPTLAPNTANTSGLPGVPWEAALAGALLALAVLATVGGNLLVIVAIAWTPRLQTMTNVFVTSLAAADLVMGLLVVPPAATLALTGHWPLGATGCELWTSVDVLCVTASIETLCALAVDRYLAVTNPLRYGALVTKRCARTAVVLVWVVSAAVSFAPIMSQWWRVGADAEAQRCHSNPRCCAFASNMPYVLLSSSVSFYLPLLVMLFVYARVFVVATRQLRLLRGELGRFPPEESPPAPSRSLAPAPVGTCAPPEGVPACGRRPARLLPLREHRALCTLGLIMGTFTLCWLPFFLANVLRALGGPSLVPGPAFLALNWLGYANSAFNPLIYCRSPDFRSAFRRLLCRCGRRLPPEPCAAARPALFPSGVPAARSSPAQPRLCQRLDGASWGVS
row,EC50 [nM],SMILES
1,10 to 99.9,O=C(NCc1ccccn1)c1ccc(C[C@@H]2CC[C@H]([C@H](O)c3ccccc3)N2)cc1 [Example 2]
2,10 to 99.9,Cc1cc(C)nc(CNC(=O)c2ccc(C[C@@H]3CC[C@H]([C@H](O)c4ccccc4)N3)cc2)n1 [Example 3]
3,10 to 99.9,O=C(NCc1ncccc1F)c1ccc(C[C@@H]2CC[C@H]([C@H](O)c3ccccc3)N2)cc1 [Example 4]
4,10 to 99.9,O=C(NCc1cc(Cl)ccn1)c1ccc(C[C@@H]2CC[C@H]([C@H](O)c3ccccc3)N2)cc1 [Example 5]
5,10 to 99.9,O=C(NCc1cccc(Cl)n1)c1ccc(C[C@@H]2CC[C@H]([C@H](O)c3ccccc3)N2)cc1 [Example 6]
6,10 to 99.9,COC(=O)c1ccnc(CNC(=O)c2ccc(C[C@@H]3CC[C@H]([C@H](O)c4ccccc4)N3)cc2)c1 [Example 7]
7,100 to 999,O=C(NCc1cccnn1)c1ccc(C[C@@H]2CC[C@H]([C@H](O)c3ccccc3)N2)cc1 [Example 8]
8,100 to 999,O=C(NCc1ncccn1)c1ccc(C[C@@H]2CC[C@H]([C@H](O)c3ccccc3)N2)cc1 [Example 9]
9,100 to 999,O=C(NCc1cnccn1)c1ccc(C[C@@H]2CC[C@H]([C@H](O)c3ccccc3)N2)cc1 [Example 10]
10,999 to 3000,CC(NC(=O)c1ccc(C[C@@H]2CC[C@H]([C@H](O)c3ccccc3)N2)cc1)c1cnccn1 (stereo partly drawn) [Example 11]
11,10 to 99.9,O=C(NCc1ccncn1)c1ccc(C[C@@H]2CC[C@H]([C@H](O)c3ccccc3)N2)cc1 [Example 12]
12,10 to 99.9,Cc1cccnc1CNC(=O)c1ccc(C[C@@H]2CC[C@H]([C@H](O)c3ccccc3)N2)cc1 [Example 13]
13,10 to 99.9,O=C(NCc1nccc(C(F)(F)F)n1)c1ccc(C[C@@H]2CC[C@H]([C@H](O)c3ccccc3)N2)cc1 [Example 14]
14,10 to 99.9,O=C(NCc1nccc(C2CC2)n1)c1ccc(C[C@@H]2CC[C@H]([C@H](O)c3ccccc3)N2)cc1 [Example 15]
15,10 to 99.9,Cc1cc(C2CC2)nc(CNC(=O)c2ccc(C[C@@H]3CC[C@H]([C@H](O)c4ccccc4)N3)cc2)n1 [Example 16]
16,100 to 999,Cc1cccc(CNC(=O)c2ccc(C[C@@H]3CC[C@H]([C@H](O)c4ccccc4)N3)cc2)n1 [Example 17]
17,10 to 99.9,Cc1ccnc(CNC(=O)c2ccc(C[C@@H]3CC[C@H]([C@H](O)c4ccccc4)N3)cc2)n1 [Example 18]
18,10 to 99.9,Cc1ccnc(CNC(=O)c2ccc(C[C@@H]3CC[C@H]([C@H](O)c4ccccc4)N3)cc2)c1 [Example 19]
19,10 to 99.9,Cc1nccnc1CNC(=O)c1ccc(C[C@@H]2CC[C@H]([C@H](O)c3ccccc3)N2)cc1 [Example 20]
20,10 to 99.9,O=C(NCc1nccc(-c2ccccc2)n1)c1ccc(C[C@@H]2CC[C@H]([C@H](O)c3ccccc3)N2)cc1 [Example 21]
21,10 to 99.9,Cc1cc(-c2ccccc2)nc(CNC(=O)c2ccc(C[C@@H]3CC[C@H]([C@H](O)c4ccccc4)N3)cc2)n1 [Example 22]
22,10 to 99.9,O=C(NCc1cc(-c2ccccc2)ncn1)c1ccc(C[C@@H]2CC[C@H]([C@H](O)c3ccccc3)N2)cc1 [Example 23]
23,10 to 99.9,O=C(NCc1ncc(-c2ccccc2)cn1)c1ccc(C[C@@H]2CC[C@H]([C@H](O)c3ccccc3)N2)cc1 [Example 24]
24,10 to 99.9,Nc1nc(CNC(=O)c2ccc(C[C@@H]3CC[C@H]([C@H](O)c4ccccc4)N3)cc2)cs1 [Example 25]

row,EC50 [nM],SMILES
1,10 to 99.9,Nc1nc(CNC(=O)c2ccc(C[C@@H]3CC[C@H]([C@H](O)c4cccnc4)N3)cc2)cs1 [Example 26]
2,10 to 99.9,Cc1nc(CNC(=O)c2ccc(C[C@@H]3CC[C@H]([C@H](O)c4ccccc4)N3)cc2)cs1 [Example 27]
3,10 to 99.9,O=C(NCc1nc(C(F)(F)F)cc(=O)[nH]1)c1ccc(C[C@@H]2CC[C@H]([C@H](O)c3ccccc3)N2)cc1 [Example 28]
4,10 to 99.9,O=C(NCc1cc(-c2ccccc2)no1)c1ccc(C[C@@H]2CC[C@H]([C@H](O)c3ccccc3)N2)cc1 [Example 29]
5,10 to 99.9,O=C(NCc1cc(-c2ccccc2)no1)c1ccc(C[C@@H]2CC[C@H]([C@H](O)c3cccnc3)N2)cc1 [Example 30]
6,100 to 999,O=C(NCc1cc(-c2ccccc2)no1)c1ccc(C[C@@H]2CC[C@H]([C@H](O)c3ccc[n+]([O-])c3)N2)cc1 [Example 31]
7,10 to 99.9,O=C(NCc1cc(-c2ccccc2)n[nH]1)c1ccc(C[C@@H]2CC[C@H]([C@H](O)c3ccccc3)N2)cc1 [Example 32]
8,1 to 9.9,O=C(NCc1nc(-c2ccccc2)n[nH]1)c1ccc(C[C@@H]2CC[C@H]([C@H](O)c3cccnc3)N2)cc1 [Example 33]
9,10 to 99.9,O=C(NCc1nc2ccccc2[nH]1)c1ccc(C[C@@H]2CC[C@H]([C@H](O)c3ccccc3)N2)cc1 [Example 34]
10,10 to 99.9,Cn1c(CNC(=O)c2ccc(C[C@@H]3CC[C@H]([C@H](O)c4ccccc4)N3)cc2)nc2ccccc21 [Example 35]
11,10 to 99.9,Cn1c(CNC(=O)c2ccc(C[C@@H]3CC[C@H]([C@H](O)c4cccnc4)N3)cc2)nc2ccccc21 [Example 36]
12,10 to 99.9,O=C(NCc1nc2cccnc2[nH]1)c1ccc(C[C@@H]2CC[C@H]([C@H](O)c3ccccc3)N2)cc1 [Example 37]
13,1 to 9.9,O=C(NCc1nc2ccncc2[nH]1)c1ccc(C[C@@H]2CC[C@H]([C@H](O)c3ccccc3)N2)cc1 [Example 38]
14,10 to 99.9,O=C(NCc1nc2ccncc2[nH]1)c1ccc(C[C@@H]2CC[C@H]([C@H](O)c3cccnc3)N2)cc1 [Example 39]
15,10 to 99.9,O=C(NCc1nc2ccccc2s1)c1ccc(C[C@@H]2CC[C@H]([C@H](O)c3ccccc3)N2)cc1 [Example 40]
16,10 to 99.9,O=C(NCc1nc2ccccc2s1)c1ccc(C[C@@H]2CC[C@H]([C@H](O)c3cccnc3)N2)cc1 [Example 41]
17,1 to 9.9,O=C(NCc1nccc2ccccc12)c1ccc(C[C@@H]2CC[C@H]([C@H](O)c3ccccc3)N2)cc1 [Example 42]
18,10 to 99.9,O=C(NCc1nccc2ccccc12)c1ccc(C[C@@H]2CC[C@H]([C@H](O)c3cccnc3)N2)cc1 [Example 43]
19,10 to 99.9,O=C(NCc1ccc2ccccc2n1)c1ccc(C[C@@H]2CC[C@H]([C@H](O)c3ccccc3)N2)cc1 [Example 44]
20,10 to 99.9,O=C(NCc1cc2ccccc2cn1)c1ccc(C[C@@H]2CC[C@H]([C@H](O)c3ccccc3)N2)cc1 [Example 45]
21,100 to 999,O=C(NCc1ccccc1-c1c[nH]cn1)c1ccc(C[C@@H]2CC[C@H]([C@H](O)c3ccccc3)N2)cc1 [Example 46]
22,100 to 999,O=C(NC1CCc2scnc21)c1ccc(C[C@@H]2CC[C@H]([C@H](O)c3ccccc3)N2)cc1 (stereo partly drawn) [Example 47]
23,100 to 999,O=C(NC1CCCc2cccnc21)c1ccc(C[C@@H]2CC[C@H]([C@H](O)c3ccccc3)N2)cc1 (stereo partly drawn) [Example 48]
24,100 to 999,CN1CCC(NC(=O)c2ccc(C[C@@H]3CC[C@H]([C@H](O)c4cccnc4)N3)cc2)C1=O (stereo partly drawn) [Example 49]

# Same assay, conditions: Table 2, CHO cells with cloned β3 receptor, ligands titrated 10^-10 M to 10^-5 M, read-out: Human β3 agonist functional activity
row,SMILES,EC50 [nM]
1,Cc1cc(C)nc(CNC(=O)c2ccc(C[C@@H]3CC[C@H]([C@H](O)c4ccc(F)cc4)N3)cc2)n1 [Example 50],10 to 99.9

# Same assay, conditions: Table 3, CHO cells with cloned β3 receptor, ligands titrated 10^-12 M to 10^-5 M, read-out: Human β3 agonist functional activity
row,EC50 [nM],SMILES
1,100 to 999,CN(C(=O)c1ccc(CC2CCC(C(O)c3ccccc3)N2)cc1)C(c1ccccn1)C1CC1 (mixture of isomers) [Example 96]
2,10 to 99.9,"CC(C1COc2ccccc2O1)N(C)C(=O)c1ccc(C[C@@H]2CC[C@H]([C@H](O)c3ccccc3)N2)cc1 (single isomer, unassigned) [Example 94]"
3,100 to 999,"CC(C1COc2ccccc2O1)N(C)C(=O)c1ccc(C[C@@H]2CC[C@H]([C@H](O)c3ccccc3)N2)cc1 (single isomer, unassigned) [Example 95]"

# Same assay, conditions: given as a range, CHO cells with cloned β3 receptor, read-out: human Beta-3 agonist functional activity
row,EC50 [nM],SMILES
1,1 to 9.9,"O=C(NCc1nc(-c2ccccc2)n[nH]1)c1ccc(C[C@@H]2CC[C@H]([C@H](O)c3ccccc3)N2)cc1 [Example 1, 4-({(2S,5R)-5-[(R)-hydroxy(phenyl)methyl]pyrolidin-2-yl}methyl)-N-[(3-phenyl-1H-1,2,4-triazol-5-yl)methyl]benzamide]"
2,1 to 9.9,"CN(Cc1cccnc1)C(=O)c1ccc(C[C@@H]2CC[C@H]([C@H](O)c3ccccc3)N2)cc1 [Example 51, 4-({(2S,5R)-5-[(R)-hydroxy(phenyl)methyl]pyrrolidin-2-yl}methyl)-N-methyl-N-(pyridine-3-ylmethyl)benzamide]"

# Reference: US8604038B2, “Pyrrolidine derived beta 3 adrenergic receptor agonists” (Merck Sharp & Dohme Corp., priority 2009, dated 2013)
